In US20090062251A1, “Novel Compounds 002” (ASTRAZENECA AB, priority 2007, published 2009) one finds Emax, Ki and EC50 data, which are given here for 22 molecules.

The target in test [1] is T1, Human CB1 receptor (hCB1) (Homo sapiens, UniProt P21554).
T1 construct: purchased Receptor Biology
In words: hCB1 GTPγS binding. To be noted: for Emax: maximal stimulated binding determined with 10 μM Win 55,212-2; for EC50: hCB1 membranes, GTPγ35S, 10-point dose-response. In kind it is biochemical. The protocol: hCB1 and hCB2 GTPγS Binding
Human CB1 receptor from Receptor Biology (hCB1) or human CB2 receptor membranes (BioSignal) are thawed at 37° C., passed 3 times through a 25-gauge blunt-end needle and diluted in the GTPγS binding buffer (50 mM Hepes, 20 mM NaOH, 100 mM NaCl, 1 mM EDTA, 5 mM MgCl2, pH 7.4, 0.1% BSA). […] The basal and maximal stimulated binding is determined in absence and presence of 1 μM (hCB2) or 10 μM (hCB1) Win 55, 212-2 respectively. The membranes are pre-incubated for 5 minutes with 56.25 μM (hCB2) or 112.5 μM (hCB1) GDP prior to distribution in plates (15 μM (hCB2) or 30 μM (hCB1) GDP final). The plates are vortexed and incubated for 60 minutes at room temperature, filtered on Unifilters GF/B (presoaked in water) with the Tomtec or Packard harvester using 3 ml of wash buffer (50 mM Tris, 5 mM MgCl2, 50 mM NaCl, pH 7.0). The filters are dried for 1 hour at 55° C. The radioactivity (cpm) is counted in a TopCount (Packard) after adding 65 μl/well of MS-20 scintillation liquid. Antagonist reversal studies are done in the same way except that (a) an agonist dose-response curve is done in the presence of a constant concentration of antagonist, or (b) an antagonist dose-response curve is done in the presence of a constant concentration of agonist.

The target of test [2] is T1, Human CB1 receptor (hCB1). The test can be described thus: hCB1 receptor binding (3H-CP55,940 displacement). The note with it: hCB1 membranes, Ki=IC50/(1+[rad]/Kd). The protocol: hCB1 and hCB2 Receptor Binding
Human CB1 receptor from Receptor Biology (hCB1) or human CB2 receptor from BioSignal (hCB2) membranes are thawed at 37° C., passed 3 times through a 25-gauge blunt-end needle, diluted in the cannabinoid binding buffer (50 mM Tris, 2.5 mM EDTA, 5 mM MgCl2, and 0.5 mg/mL BSA fatty acid free, pH 7.4) and aliquots containing the appropriate amount of protein are distributed in 96-well plates. […] The total and non-specific binding are determined in the absence and presence of 0.2 μM of HU210 respectively. The plates are vortexed and incubated for 60 minutes at room temperature, filtered through Unifilters GF/B (presoaked in 0.1% polyethyleneimine) with the Tomtec or Packard harvester using 3 mL of wash buffer (50 mM Tris, 5 mM MgCl2, 0.5 mg BSA pH 7.0). The filters are dried for 1 hour at 55° C. The radioactivity (cpm) is counted in a TopCount (Packard) after adding 65 μl/well of MS-20 scintillation liquid.
Based on the above assays, the dissociation constant (Ki) for a particular compound of the invention towards a particular receptor is determined using the following equation:
[rad] is a standard or reference radioactive ligand concentration at that moment; and
Kd is the dissociation constant of the radioactive ligand towards the particular receptor.

T1 sequence (P21554 whole entry): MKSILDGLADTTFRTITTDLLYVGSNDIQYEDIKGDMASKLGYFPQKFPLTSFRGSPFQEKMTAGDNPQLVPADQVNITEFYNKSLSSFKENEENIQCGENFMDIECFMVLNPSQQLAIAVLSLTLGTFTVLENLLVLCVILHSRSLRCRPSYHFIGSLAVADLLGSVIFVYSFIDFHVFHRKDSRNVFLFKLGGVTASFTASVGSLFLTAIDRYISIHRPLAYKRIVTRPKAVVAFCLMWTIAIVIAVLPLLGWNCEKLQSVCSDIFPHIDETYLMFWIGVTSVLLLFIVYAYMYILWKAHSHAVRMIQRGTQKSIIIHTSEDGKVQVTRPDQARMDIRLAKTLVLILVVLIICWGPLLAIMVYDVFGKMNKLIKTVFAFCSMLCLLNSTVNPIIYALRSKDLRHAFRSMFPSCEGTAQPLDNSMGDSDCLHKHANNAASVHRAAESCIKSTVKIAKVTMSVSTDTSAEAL

In the case of `Cn1c2c(c3cc(C(=O)N4CC[C@H](C(=O)NCCF)C4)ccc31)CC(C1CCOCC1)CC2` (stereo partly drawn) [(3S)—N-(2-fluoroethyl)-1-[9-methyl-6-(oxan-4-yl)5,6,7,8-tetrahydrocarbazole-3-carbonyl]pyrrolidine-3-carboxamide], the Emax in test [1] worked out at 119%. Moreover, the Ki in test [2] was 30.5 nM.
Take `Cn1c2c(c3cc(C(=O)N4CC[C@H](C(=O)NCC5CC5)C4)ccc31)CC(C1CCOCC1)CC2` (stereo partly drawn) [(3S)—N-(cyclopropylmethyl)-1-[9-methyl-6-(oxan-4-yl)5,6,7,8-tetrahydrocarbazole-3-carbonyl]pyrrolidine-3-carboxamide]: in test [1], a half-maximal effect (EC50) was put at 251 nM and the maximum response (Emax) was 117%. Besides, the inhibition constant Ki in test [2] was determined as 109 nM.
The matching figures for `CCNC(=O)[C@H]1CCN(C(=O)c2ccc3c(c2)c2c(n3C)CCC(C3CCOCC3)C2)C1` (stereo partly drawn) [(3S)—N-ethyl-1-[9-methyl-6-(oxan-4-yl)5,6,7,8-tetrahydrocarbazole-3-carbonyl]pyrrolidine-3-carboxamide]: 103 nM, 122% and 69.9 nM.
Turning to `CCn1c2c(c3cc(C(=O)N4CCC(C)CC4)ccc31)CC(C1CCCCC1)CC2` (centres unmarked) [(6-cyclohexyl-9-ethyl-5,6,7,8-tetrahydrocarbazol-3-yl)-(4-methyl-1-piperidyl)methanone], in test [1], the 50% effective concentration (EC50) stood at 234 nM and the Emax was found to be 90%. The molecule also had a Ki in test [2] of 82.3 nM.
Taken in the same sequence, the figures for `CCS(=O)(=O)n1c2c(c3cc(C(=O)N4CCC(C)CC4)ccc31)CC(C1CCCCC1)CC2` (centres unmarked) [(6-cyclohexyl-9-ethylsulfonyl-5,6,7,8-tetrahydrocarbazol-3-yl)-(4-methyl-1-piperidyl)methanone] were 20 nM, 107% and 15.2 nM.
Turning to `CC1CCN(C(=O)c2ccc3c(c2)c2c(n3C)CCC(C3CCCCC3)C2)CC1` (centres unmarked) [(6-cyclohexyl-9-methyl-5,6,7,8-tetrahydrocarbazol-3-yl)-(4-methyl-1-piperidyl)methanone], in test [1], a half-maximal effect (EC50) was put at 65.1 nM and the maximal response (Emax) stood at 106%. This molecule also showed an inhibition constant Ki in test [2] of 29.5 nM.
In test [1], `CC1CCN(C(=O)c2ccc3c(c2)c2c(n3S(C)(=O)=O)CCC(C3CCCCC3)C2)CC1` (centres unmarked) [(6-cyclohexyl-9-methylsulfonyl-5,6,7,8-tetrahydrocarbazol-3-yl)-(4-methyl-1-piperidyl)methanone] gave an EC50 of 277 nM and an Emax of 89%. In addition, affinity in test [2] was put at a Ki of 75.3 nM.
In test [1], `CN(CCCC(=O)NCCO)C(=O)c1ccc2c(c1)c1c(n2C)CC[C@@H](C2CCOCC2)C1` [(R)—N-(4-(2-Hydroxyethylamino)-4-oxobutyl)-N,9-dimethyl-3-(tetrahydro-2H-pyran-4-yl)-2,3,4,9-tetrahydro-1H-carbazole-6-carboxamide] came in with an EC50 of 173 nM and an Emax of 120%. The affinity in test [2], expressed as Ki, was 69 nM.
The matching figures for `CN(C(=O)c1ccc2c(c1)c1c(n2C)CC[C@@H](C2CCOCC2)C1)[C@H](CO)CCC(=O)NCCF` [(R)—N-((S)-5-(2-Fluoroethylamino)-1-hydroxy-5-oxopentan-2-yl)-N,9-dimethyl-3-(tetrahydro-2H-pyran-4-yl)-2,3,4,9-tetrahydro-1H-carbazole-6-carboxamide]: 61 nM, 118% and 26 nM.
In test [1], `CCNC(=O)CC[C@@H](CO)N(C)C(=O)c1ccc2c(c1)c1c(n2C)CC[C@@H](C2CCOCC2)C1` [(R)—N-((S)-5-(Ethylamino)-1-hydroxy-5-oxopentan-2-yl)-N,9-dimethyl-3-(tetrahydro-2H-pyran-4-yl)-2,3,4,9-tetrahydro-1H-carbazole-6-carboxamide] gave an EC50 of 79 nM and a maximal effect (Emax) of 126%. In test [2], affinity was put at a Ki of 36 nM.
The matching figures for `CCN(CC(=O)NCC(F)F)C(=O)c1ccc2c(c1)c1c(n2C)CCC(C2CCOCC2)C1` (centres unmarked) [N-(2,2-difluoroethylcarbamoylmethyl)-N-ethyl-9-methyl-6-(oxan-4-yl)-5,6,7,8-tetrahydrocarbazole-3-carboxamide]: 39.9 nM, 116% and 17.1 nM.
On to `CCN(CC(=O)NCCC#N)C(=O)c1ccc2c(c1)c1c(n2S(=O)(=O)CC)CCC(C2CCOCC2)C1` (centres unmarked) [N-(2-cyanoethylcarbamoylmethyl)-N-ethyl-9-ethylsulfonyl-6-(oxan-4-yl)-5,6,7,8-tetrahydrocarbazole-3-carboxamide], for which, in test [1], the EC50 turned out to be 120 nM and the maximal response (Emax) was determined as 115%. In addition, the inhibition constant (Ki) in test [2] is 115 nM.
In test [1], `Cn1c2c(c3cc(C(=O)N4CCC(C(=O)NCCF)C4)ccc31)CC(C1CCOCC1)CC2` (centres unmarked) [N-(2-fluoroethyl)-1-[9-methyl-6-(oxan-4-yl)5,6,7,8-tetrahydrocarbazole-3-carbonyl]pyrrolidine-3-carboxamide] displayed a 50% effective concentration (EC50) of 263 nM and an Emax of 121%. Besides, affinity in test [2] was put at a Ki of 126 nM.
The matching figures for `CN(CC(=O)NCCF)C(=O)c1ccc2c(c1)c1c(n2C)CCC(C2CCOCC2)C1` (centres unmarked) [N-(2-fluoroethylcarbamoylmethyl)-N,9-dimethyl-6-(oxan-4-yl)-5,6,7,8-tetrahydrocarbazole-3-carboxamide]: 721 nM, 110% and 291 nM.
The matching figures for `CCN(CC(=O)NC1CC1)C(=O)c1ccc2c(c1)c1c(n2CC2CC2)CCC(C2CCOCC2)C1` (centres unmarked) [N-(cyclopropylcarbamoylmethyl)-9-(cyclopropylmethyl)-N-ethyl-6-(oxan-4-yl)-5,6,7,8-tetrahydrocarbazole-3-carboxamide]: 34.2 nM, 91% and 21.2 nM.
The matching figures for `CCS(=O)(=O)n1c2c(c3cc(C(=O)N(C)CC(=O)NC4CC4)ccc31)CC(C1CCOCC1)CC2` (centres unmarked) [N-(cyclopropylcarbamoylmethyl)-9-ethylsulfonyl-N-methyl-6-(oxan-4-yl)-5,6,7,8-tetrahydrocarbazole-3-carboxamide]: 18.8 nM, 116% and 18.1 nM.
In test [1], `Cn1c2c(c3cc(C(=O)N4CCCC(NC(=O)C5CC5)C4)ccc31)CC(C1CCOCC1)CC2` (centres unmarked) [N-[1-[9-methyl-6-(oxan-4-yl)5,6,7,8-tetrahydrocarbazole-3-carbonyl]-3-piperidyl]cyclopropanecarboxamide] gave a 50% effective concentration (EC50) of 40.6 nM and a maximum response (Emax) of 115%. For the same molecule, the inhibitory constant (Ki) in test [2] came to 26.7 nM.
The matching figures for `CCC(=O)NC1CCCN(C(=O)c2ccc3c(c2)c2c(n3C)CCC(C3CCOCC3)C2)C1` (centres unmarked) [N-[1-[9-methyl-6-(oxan-4-yl)5,6,7,8-tetrahydrocarbazole-3-carbonyl]-3-piperidyl]propanamide]: 263 nM, 122% and 63.2 nM.
As for `Cn1c2c(c3cc(C(=O)N4CCC(NC(=O)C5CC5)CC4)ccc31)CC(C1CCOCC1)CC2` (centres unmarked) [N-[1-[9-methyl-6-(oxan-4-yl)5,6,7,8-tetrahydrocarbazole-3-carbonyl]-4-piperidyl]cyclopropanecarboxamide], in test [1], the EC50 was > 30000 nM and the Emax is > 30%. Also, the Ki in test [2] is > 3480 nM.
In test [1], `CN(CCN(C)C(=O)c1ccc2c(c1)c1c(n2C)CCC(C2CCOCC2)C1)C(=O)NC1CC1` (centres unmarked) [N-[2-(cyclopropylcarbamoyl-methyl-amino)ethyl]-N,9-dimethyl-6-(oxan-4-yl)-5,6,7,8-tetrahydrocarbazole-3-carboxamide] gave an EC50 of 468 nM and an Emax of 110%. The molecule further came in with an inhibition constant (Ki) in test [2] of 77.5 nM.
The matching figures for `CN(CCN(C)C(=S)NC1CC1)C(=O)c1ccc2c(c1)c1c(n2C)CCC(C2CCOCC2)C1` (centres unmarked) [N-[2-(cyclopropylthiocarbamoyl-methyl-amino)ethyl]-N,9-dimethyl-6-(oxan-4-yl)-5,6,7,8-tetrahydrocarbazole-3-carboxamide]: 161 nM, 106% and 9.9 nM.
With `CCn1c2c(c3cc(C(=O)N(C)CCCC(=O)NCC(F)F)ccc31)CC(C1CCOCC1)CC2` (centres unmarked) [N-[3-(2,2-difluoroethylcarbamoyl)propyl]-9-ethyl-N-methyl-6-(oxan-4-yl)-5,6,7,8-tetrahydrocarbazole-3-carboxamide], in test [1], the half-maximal effective concentration (EC50) is 98.3 nM and the maximal effect (Emax) stood at 114%. In test [2], this molecule displayed an inhibition constant (Ki) of 45.2 nM.
